In ChEMBL document CHEMBL5465560, “Selectivity Literature for EUbOPEN Chemogenomic Library” (2024) one finds % of control and % of inhibition data, which are given here for 5 molecules.

Experiment [1] concerns the target T1, Mitogen-activated protein kinase kinase kinase 19 (Homo sapiens) (UniProt Q56UN5).
T1 sequence (whole entry): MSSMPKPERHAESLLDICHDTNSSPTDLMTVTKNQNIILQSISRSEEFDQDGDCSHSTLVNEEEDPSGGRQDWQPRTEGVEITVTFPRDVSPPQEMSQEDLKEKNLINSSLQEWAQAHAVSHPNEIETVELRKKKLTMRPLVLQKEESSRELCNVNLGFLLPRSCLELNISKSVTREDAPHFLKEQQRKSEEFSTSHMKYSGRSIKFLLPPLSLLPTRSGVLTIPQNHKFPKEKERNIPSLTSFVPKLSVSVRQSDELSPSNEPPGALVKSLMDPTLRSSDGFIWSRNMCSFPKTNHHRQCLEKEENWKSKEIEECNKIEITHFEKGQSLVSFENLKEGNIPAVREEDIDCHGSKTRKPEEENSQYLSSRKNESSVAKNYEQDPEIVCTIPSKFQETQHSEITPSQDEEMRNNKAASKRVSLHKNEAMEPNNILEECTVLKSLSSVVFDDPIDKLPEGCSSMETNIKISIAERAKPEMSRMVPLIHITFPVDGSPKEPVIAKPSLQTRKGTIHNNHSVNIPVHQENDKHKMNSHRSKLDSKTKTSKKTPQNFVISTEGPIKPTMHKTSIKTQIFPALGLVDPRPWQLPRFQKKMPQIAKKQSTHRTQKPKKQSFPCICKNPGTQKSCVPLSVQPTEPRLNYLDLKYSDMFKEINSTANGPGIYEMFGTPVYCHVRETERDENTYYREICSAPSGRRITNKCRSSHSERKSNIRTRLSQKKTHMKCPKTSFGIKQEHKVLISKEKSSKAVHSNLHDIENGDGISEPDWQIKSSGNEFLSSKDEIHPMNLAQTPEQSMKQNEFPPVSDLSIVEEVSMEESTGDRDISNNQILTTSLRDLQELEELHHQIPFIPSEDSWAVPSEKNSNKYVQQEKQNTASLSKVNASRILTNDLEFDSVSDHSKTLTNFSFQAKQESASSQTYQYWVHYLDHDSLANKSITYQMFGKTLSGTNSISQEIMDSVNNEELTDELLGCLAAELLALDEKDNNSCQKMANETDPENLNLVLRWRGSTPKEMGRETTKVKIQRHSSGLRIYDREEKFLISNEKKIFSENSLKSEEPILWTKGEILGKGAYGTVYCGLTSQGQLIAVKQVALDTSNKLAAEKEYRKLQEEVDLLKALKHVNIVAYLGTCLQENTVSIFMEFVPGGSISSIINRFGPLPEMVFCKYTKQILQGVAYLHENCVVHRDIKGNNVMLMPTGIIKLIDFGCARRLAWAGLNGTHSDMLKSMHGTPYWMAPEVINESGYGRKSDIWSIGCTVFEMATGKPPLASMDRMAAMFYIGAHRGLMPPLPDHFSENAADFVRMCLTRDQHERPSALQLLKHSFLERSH
The experiment can be described thus: Selectivity interaction (Kinase panel (Z-LYTE Assay)) EUB0001632a MAP3K19. The note with it: at 10 µM.

For experiment [2], the target named is Mitogen-activated protein kinase 3 (Homo sapiens, UniProt P27361). In words: Selectivity interaction (Rxn Biology Kinase assay) EUB0001632a MAPK3. As to conditions: at 10 µM.
Chain of Mitogen-activated protein kinase 3 (P27361 whole entry): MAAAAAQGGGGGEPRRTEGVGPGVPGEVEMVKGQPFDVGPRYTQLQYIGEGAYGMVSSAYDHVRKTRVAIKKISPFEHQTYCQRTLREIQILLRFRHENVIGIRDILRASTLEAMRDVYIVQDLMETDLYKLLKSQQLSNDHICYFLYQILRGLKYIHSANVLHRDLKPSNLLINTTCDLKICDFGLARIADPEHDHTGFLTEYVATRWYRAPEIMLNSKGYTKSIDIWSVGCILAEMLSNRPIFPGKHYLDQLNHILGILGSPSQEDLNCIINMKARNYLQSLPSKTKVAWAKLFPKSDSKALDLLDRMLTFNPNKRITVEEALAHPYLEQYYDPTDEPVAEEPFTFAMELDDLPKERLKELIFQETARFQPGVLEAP
The target in experiment [3] is Dual specificity mitogen-activated protein kinase kinase 2 (Homo sapiens) (UniProt P36507). In words: Selectivity interaction (ActivX KiNativ screen (kinase selectivity in THP-1 cell lysates)) EUB0000639a MAP2K2. The class given is subcellular. The note with it: lysate.
Chain of Dual specificity mitogen-activated protein kinase kinase 2 (Homo sapiens) (P36507 whole entry): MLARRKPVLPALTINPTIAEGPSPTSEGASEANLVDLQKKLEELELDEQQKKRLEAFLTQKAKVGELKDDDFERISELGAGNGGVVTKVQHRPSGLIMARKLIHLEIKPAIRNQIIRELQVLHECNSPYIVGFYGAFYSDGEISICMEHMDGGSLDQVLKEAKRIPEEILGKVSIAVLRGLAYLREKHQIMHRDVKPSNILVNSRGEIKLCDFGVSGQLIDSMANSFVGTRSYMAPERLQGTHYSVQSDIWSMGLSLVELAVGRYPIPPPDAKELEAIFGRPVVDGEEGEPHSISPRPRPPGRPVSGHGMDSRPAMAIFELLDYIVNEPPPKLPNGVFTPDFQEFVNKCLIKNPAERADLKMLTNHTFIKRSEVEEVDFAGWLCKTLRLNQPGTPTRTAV
For experiment [4], the target named is Tyrosine-protein kinase Lck (Homo sapiens, UniProt P06239). In words: Selectivity interaction (KinomeScan (DiscoverX)) EUB0000699a LCK. The note with it: at 10 µM.
Chain of Tyrosine-protein kinase Lck (P06239 2-509 limits assumed): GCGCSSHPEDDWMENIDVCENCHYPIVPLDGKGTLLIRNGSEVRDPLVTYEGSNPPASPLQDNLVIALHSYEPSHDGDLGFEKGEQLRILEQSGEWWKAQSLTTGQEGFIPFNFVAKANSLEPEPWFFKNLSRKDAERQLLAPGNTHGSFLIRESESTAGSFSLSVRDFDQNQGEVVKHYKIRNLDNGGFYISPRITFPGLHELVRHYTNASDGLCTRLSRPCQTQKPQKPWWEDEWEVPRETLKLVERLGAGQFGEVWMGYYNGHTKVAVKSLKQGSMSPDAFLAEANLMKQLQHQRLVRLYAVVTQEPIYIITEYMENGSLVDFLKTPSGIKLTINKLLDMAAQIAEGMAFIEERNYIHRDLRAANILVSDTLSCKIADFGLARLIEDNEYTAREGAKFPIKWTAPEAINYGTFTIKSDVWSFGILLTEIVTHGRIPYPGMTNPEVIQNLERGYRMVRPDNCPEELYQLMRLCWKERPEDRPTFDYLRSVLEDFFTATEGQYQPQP
For experiment [5], the target named is T2, Rhodopsin kinase GRK7 (Homo sapiens) (UniProt Q8WTQ7).
T2 sequence (whole entry): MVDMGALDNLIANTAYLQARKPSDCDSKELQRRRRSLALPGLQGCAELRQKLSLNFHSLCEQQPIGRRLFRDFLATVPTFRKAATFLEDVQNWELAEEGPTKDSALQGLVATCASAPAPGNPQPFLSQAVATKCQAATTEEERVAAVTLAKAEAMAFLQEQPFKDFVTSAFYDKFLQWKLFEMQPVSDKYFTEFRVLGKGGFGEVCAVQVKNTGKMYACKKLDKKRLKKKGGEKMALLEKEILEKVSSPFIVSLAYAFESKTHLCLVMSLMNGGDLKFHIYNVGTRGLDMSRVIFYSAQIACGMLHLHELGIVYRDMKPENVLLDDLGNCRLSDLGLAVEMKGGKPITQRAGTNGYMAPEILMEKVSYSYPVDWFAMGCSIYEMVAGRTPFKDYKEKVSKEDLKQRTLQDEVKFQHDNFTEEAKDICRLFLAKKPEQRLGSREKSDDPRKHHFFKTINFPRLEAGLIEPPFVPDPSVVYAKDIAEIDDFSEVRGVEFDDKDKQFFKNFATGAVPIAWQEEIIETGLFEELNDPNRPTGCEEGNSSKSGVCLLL
In words: Selectivity interaction (ProQinase) EUB0000171b GRK7.

Experiment [6] has as its target T3, Serine/threonine-protein kinase Sgk3 (Homo sapiens) (UniProt Q96BR1).
T3 sequence (whole entry): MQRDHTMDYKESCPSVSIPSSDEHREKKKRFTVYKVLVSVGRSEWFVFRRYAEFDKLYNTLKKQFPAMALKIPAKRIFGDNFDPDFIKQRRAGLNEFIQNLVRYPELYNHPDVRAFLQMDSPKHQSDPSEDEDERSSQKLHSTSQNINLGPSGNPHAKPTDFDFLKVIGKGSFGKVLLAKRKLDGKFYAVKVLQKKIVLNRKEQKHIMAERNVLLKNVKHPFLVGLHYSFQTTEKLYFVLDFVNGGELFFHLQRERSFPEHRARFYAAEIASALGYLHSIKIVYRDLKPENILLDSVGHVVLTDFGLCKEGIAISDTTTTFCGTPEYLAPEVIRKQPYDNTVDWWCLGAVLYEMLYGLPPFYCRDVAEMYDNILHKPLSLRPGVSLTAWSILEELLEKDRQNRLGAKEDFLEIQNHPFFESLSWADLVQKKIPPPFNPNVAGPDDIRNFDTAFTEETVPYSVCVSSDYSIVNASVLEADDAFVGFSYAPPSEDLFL
In words: Selectivity interaction (ProQinase) EUB0000171b SGK3.

Experiment [7] has as its target Mitogen-activated protein kinase kinase kinase 20 (Homo sapiens) (UniProt Q9NYL2). The experiment can be described thus: Selectivity interaction (KinomeScan (DiscoverX)) EUB0000045b MAP3K20.

Chain of Mitogen-activated protein kinase kinase kinase 20 (Homo sapiens) (Q9NYL2 2-800 limits assumed): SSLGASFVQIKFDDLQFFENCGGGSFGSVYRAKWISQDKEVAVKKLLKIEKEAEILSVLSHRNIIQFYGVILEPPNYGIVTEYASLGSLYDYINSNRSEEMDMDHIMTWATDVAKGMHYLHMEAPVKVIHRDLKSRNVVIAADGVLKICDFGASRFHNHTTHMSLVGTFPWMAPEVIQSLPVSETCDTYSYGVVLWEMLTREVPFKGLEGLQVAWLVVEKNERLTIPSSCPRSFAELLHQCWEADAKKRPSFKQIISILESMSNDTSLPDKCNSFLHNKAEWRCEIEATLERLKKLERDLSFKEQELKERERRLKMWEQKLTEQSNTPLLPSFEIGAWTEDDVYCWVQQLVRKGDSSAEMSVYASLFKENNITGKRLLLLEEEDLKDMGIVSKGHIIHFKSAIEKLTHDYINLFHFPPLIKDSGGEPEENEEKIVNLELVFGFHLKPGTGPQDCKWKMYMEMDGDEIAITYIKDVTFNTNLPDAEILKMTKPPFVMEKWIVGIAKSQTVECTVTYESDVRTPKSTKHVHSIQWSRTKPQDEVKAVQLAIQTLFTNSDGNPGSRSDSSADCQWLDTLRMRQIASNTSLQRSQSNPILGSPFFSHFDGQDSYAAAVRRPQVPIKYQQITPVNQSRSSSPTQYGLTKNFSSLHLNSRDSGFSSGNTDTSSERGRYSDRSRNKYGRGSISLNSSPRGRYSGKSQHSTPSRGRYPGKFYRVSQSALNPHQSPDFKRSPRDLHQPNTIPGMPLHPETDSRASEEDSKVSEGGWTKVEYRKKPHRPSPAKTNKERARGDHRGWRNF

In the case of `Cn1cc(-n2cnc3c(NCc4nc5cc(Cl)c(Cl)cc5[nH]4)nc(N4CCOCC4)nc32)cn1`, the % of control in experiment [1] was -3.06%. Further, the % of inhibition in experiment [2] was -5.84%.
Regarding `CC[C@@H]1[C@H](F)C(=O)N[C@@H]1COc1nccc2cc(C(N)=O)c(OC)cc12` [ZIMLOVISERTIB], the % of inhibition is -25.6% in experiment [3] (at 0.01 µM); -4.8% in experiment [3] (at 0.04 µM); -3.6% in experiment [3] (at 0.2 µM); 3.1% in experiment [3] (at 1 µM); 18.5% in experiment [3] (at 5 µM).
As for `CCN(CC)CCCCNc1ncc2cc(-c3cc(OC)cc(OC)c3)c(NC(=O)NC(C)(C)C)nc2n1`, the % of control in experiment [4] worked out at 22%.
Take `C=CC(=O)Nc1cccc(C(=O)Nc2ccc(Nc3cc(-c4[nH]c(SC)nc4C)ccn3)cc2)c1`: the % of control amounted to 100% in experiment [5] (at 1 µM), 99% in experiment [5] (at 5 µM), 82% in experiment [6] (at 1 µM) and 76% in experiment [6] (at 5 µM).
In the case of `C=CC(=O)Nc1cc(-n2c(=O)ccc3cnc4ccc(-c5ccc(NS(C)(=O)=O)cc5)cc4c32)ccc1C`, the % of control is 64% in experiment [7] (at 1 µM) and 12% in experiment [7] (at 10 µM).
